Holding throughout (format): biochemical
One experiment concerns the target EGFR (h) (Homo sapiens, UniProt P00533). Briefly: Kinase profiling, glass-fiber filter technology: EGFR. The settings on record: test concentration of 10^−6 M; read-out: EGFR inhibition score. As for the experimental part: (§1) The in vitro inhibition of a panel of kinases was assessed using the glass-fiber filter technology as described by Davies, S. P. et al., Biochem J. (2000), 351; p. 95-105.
(§2) In the glass-fiber filter technology the activity of the kinase of interest is measured using an appropriate substrate that is incubated with the aforementioned kinase protein in the presence of (^33P) radiolabeled ATP. (^33P) Phosporylation of the substrate is subsequently measured as radioactivity bound on a glassfiber-filter.
(§3) All kinases are pre-diluted to a 10× working concentration prior to addition into the assay. The composition of the dilution buffer for each kinase is detailed below.
(§4) All substrates are dissolved and diluted to working stocks in de-ionised water.
(§5) In a final reaction volume of 25 μl, EGFR (h) (5-10 mU) is incubated with 8 mM MOPS pH 7.0, 0.2 mM EDTA, 10 mM MnCl2, 0.1 mg/ml poly(Glu, Tyr) 4:1, 10 mM MgAcetate and [γ-^33P-ATP] (specific activity approx. 500 cpm/pmol, concentration as required). The reaction is initiated by the addition of the MgATP mix. After incubation for 40 minutes at room temperature, the reaction is stopped by the addition of 5 μl of a 3% phosphoric acid solution. 10 μl of the reaction is then spotted onto a Filtermat A and washed three times for 5 minutes in 75 mM phosphoric acid and once in methanol prior to drying and scintillation counting.

In the next experiment the target is Fgr human (Homo sapiens, UniProt P09769). The experiment in a line: Kinase profiling, glass-fiber filter technology: Fgr. The settings on record: test concentration of 10^−6 M; read-out: Fgr inhibition score. The protocol:
as §1, §2, §3, §4
as §5, with “Fgr human” for “EGFR (h)”, “EDTA,” for “EDTA, 10 mM MnCl2,”

A further experiment concerns the target Ret human (Homo sapiens, UniProt P07949). The experiment in a line: Kinase profiling, glass-fiber filter technology: Ret. The settings on record: test concentration of 10^−6 M; read-out: Ret inhibition score. As for the experimental part: as §1, §2, §3, §4
as §5, with “Ret human” for “EGFR (h)”, “250 μM KKKSPGEYVNIEFG,” for “10 mM MnCl2, 0.1 mg/ml poly(Glu, Tyr) 4:1,”, “P30 filtermat” for “Filtermat A”

For another experiment, the target named is Yes (h) (Homo sapiens, UniProt P07947). Briefly: Kinase profiling, glass-fiber filter technology: Yes. The note with it: test concentration of 10^−6 M; read-out: Yes inhibition score. As for the experimental part: as §1, §2, §3, §4
Sequence of Yes (h) (P07947 whole entry): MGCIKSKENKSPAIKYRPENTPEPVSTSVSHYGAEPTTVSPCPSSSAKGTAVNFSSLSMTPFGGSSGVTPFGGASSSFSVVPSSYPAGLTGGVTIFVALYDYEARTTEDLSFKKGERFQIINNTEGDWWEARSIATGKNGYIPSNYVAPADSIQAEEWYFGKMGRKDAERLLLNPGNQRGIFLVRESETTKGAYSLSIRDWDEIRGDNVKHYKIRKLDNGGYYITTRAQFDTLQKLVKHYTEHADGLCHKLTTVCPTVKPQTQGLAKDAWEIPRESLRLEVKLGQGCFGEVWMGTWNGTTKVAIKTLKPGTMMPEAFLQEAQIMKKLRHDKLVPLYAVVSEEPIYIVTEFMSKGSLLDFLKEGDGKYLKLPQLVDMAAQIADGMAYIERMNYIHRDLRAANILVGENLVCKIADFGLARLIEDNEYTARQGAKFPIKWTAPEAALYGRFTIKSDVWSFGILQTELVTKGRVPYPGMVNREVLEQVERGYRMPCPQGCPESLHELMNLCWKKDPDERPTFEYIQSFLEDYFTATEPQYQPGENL
as §5, with “Yes” for “EGFR”, “EDTA,” for “EDTA, 10 mM MnCl2,”

In a further experiment the target is Flt1 human (Homo sapiens, UniProt P17948). The experiment in a line: Kinase profiling, glass-fiber filter technology: Flt1. The note with it: test concentration of 10^−6 M; read-out: Flt1 inhibition score. The protocol:
as §1, §2, §3, §4
as §5, with “Flt1 human” for “EGFR (h)”, “250 μM KKKSPGEYVNIEFG,” for “10 mM MnCl2, 0.1 mg/ml poly(Glu, Tyr) 4:1,”, “P30 filtermat” for “Filtermat A”

The next experiment deals with Blk (m) (Mus musculus, UniProt P16277). The experiment in a line: Kinase profiling, glass-fiber filter technology: Blk. The settings on record: test concentration of 10^−6 M; read-out: Blkl inhibition score. As for the experimental part: as §1, §2, §3, §4
Sequence of Blk (m) (P16277 whole entry): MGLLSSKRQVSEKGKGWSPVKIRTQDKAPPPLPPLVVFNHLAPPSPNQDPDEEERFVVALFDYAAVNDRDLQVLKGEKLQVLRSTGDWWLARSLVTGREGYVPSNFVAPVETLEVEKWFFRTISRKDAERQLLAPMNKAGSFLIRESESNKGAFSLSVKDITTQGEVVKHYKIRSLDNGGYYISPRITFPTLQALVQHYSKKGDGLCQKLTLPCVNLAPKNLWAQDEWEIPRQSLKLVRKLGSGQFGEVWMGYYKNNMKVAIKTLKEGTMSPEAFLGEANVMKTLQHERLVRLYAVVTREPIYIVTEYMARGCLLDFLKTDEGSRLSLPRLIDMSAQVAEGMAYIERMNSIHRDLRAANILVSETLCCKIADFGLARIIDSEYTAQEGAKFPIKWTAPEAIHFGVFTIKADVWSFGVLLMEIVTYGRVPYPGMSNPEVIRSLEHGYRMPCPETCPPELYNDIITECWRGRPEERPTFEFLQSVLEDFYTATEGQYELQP
In a final reaction volume of 25 μl, Blk (m) (5-10 mU) is incubated with 50 mM Tris pH 7.5, 0.1 mM EGTA, 0.1 mM Na3VO4, 0.1% β-mercaptoethanol, 0.1 mg/ml poly(Glu, Tyr) 4:1, 10 mM MgAcetate and [γ-33P-ATP] (specific activity approx. 500 cpm/pmol, concentration as required). The reaction is initiated by the addition of the MgATP mix. After incubation for 40 minutes at room temperature, the reaction is stopped by the addition of 5 μl of a 3% phosphoric acid solution. 10 μl of the reaction is then spotted onto a Filtermat A and washed three times for 5 minutes in 75 mM phosphoric acid and once in methanol prior to drying and scintillation counting.

A further experiment has as its target ErbB4 (h) (Homo sapiens, UniProt Q15303). The experiment in a line: Kinase profiling, glass-fiber filter technology: ErbB4. The note with it: test concentration of 10^−6 M; read-out: ErbB4 inhibition score. As for the experimental part:
as §1, §2, §3, §4
as §5, with “ErbB4” for “EGFR”, “[γ-33P-ATP]” for “[γ-^33P-ATP]”

Sequence of EGFR (h) (P00533 25-1210): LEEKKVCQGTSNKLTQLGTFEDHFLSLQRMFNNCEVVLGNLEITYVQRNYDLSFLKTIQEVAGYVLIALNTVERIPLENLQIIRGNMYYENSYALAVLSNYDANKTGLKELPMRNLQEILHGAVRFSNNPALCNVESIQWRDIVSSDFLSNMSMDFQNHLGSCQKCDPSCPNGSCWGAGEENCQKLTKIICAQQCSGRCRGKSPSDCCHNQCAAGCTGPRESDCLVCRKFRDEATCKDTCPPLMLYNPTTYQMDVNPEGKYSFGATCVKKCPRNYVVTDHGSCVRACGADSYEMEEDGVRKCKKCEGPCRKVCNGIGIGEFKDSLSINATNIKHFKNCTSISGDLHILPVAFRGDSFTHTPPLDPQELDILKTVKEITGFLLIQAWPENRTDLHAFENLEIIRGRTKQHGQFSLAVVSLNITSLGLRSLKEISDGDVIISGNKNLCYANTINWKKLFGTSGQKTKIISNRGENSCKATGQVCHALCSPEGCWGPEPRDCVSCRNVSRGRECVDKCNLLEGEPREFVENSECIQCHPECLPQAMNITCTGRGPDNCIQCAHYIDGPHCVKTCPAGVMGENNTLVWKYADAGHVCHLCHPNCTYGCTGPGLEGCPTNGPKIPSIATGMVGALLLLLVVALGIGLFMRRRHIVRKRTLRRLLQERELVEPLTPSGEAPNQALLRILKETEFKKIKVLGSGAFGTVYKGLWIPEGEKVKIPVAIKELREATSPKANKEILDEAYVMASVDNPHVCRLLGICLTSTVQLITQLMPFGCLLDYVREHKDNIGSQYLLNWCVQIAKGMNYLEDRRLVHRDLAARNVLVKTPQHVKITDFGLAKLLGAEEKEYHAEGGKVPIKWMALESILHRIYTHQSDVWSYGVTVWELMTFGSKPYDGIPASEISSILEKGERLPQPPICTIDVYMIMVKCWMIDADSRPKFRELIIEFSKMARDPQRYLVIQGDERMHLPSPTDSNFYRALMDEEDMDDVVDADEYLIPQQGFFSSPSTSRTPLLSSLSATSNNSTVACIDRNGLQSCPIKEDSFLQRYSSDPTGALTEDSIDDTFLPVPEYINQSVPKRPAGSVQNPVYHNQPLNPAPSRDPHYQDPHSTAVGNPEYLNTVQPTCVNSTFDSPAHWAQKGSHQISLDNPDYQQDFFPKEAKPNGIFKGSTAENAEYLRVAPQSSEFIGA
Sequence of Fgr human (P09769 whole entry): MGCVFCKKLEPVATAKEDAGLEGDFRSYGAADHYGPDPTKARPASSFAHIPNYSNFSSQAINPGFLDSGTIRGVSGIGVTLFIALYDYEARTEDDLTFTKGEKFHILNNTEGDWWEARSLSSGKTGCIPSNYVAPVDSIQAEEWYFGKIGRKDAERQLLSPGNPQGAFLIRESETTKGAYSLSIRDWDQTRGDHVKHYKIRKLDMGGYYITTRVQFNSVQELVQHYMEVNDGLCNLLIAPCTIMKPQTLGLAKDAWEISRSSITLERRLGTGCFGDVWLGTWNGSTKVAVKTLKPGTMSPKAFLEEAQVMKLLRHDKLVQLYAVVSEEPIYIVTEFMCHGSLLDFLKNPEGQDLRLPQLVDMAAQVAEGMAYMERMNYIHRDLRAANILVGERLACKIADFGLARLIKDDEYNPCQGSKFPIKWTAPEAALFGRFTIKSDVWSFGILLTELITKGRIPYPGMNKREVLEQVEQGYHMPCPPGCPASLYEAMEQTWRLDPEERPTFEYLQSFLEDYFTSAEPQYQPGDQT
Sequence of Ret human (P07949 29-1114): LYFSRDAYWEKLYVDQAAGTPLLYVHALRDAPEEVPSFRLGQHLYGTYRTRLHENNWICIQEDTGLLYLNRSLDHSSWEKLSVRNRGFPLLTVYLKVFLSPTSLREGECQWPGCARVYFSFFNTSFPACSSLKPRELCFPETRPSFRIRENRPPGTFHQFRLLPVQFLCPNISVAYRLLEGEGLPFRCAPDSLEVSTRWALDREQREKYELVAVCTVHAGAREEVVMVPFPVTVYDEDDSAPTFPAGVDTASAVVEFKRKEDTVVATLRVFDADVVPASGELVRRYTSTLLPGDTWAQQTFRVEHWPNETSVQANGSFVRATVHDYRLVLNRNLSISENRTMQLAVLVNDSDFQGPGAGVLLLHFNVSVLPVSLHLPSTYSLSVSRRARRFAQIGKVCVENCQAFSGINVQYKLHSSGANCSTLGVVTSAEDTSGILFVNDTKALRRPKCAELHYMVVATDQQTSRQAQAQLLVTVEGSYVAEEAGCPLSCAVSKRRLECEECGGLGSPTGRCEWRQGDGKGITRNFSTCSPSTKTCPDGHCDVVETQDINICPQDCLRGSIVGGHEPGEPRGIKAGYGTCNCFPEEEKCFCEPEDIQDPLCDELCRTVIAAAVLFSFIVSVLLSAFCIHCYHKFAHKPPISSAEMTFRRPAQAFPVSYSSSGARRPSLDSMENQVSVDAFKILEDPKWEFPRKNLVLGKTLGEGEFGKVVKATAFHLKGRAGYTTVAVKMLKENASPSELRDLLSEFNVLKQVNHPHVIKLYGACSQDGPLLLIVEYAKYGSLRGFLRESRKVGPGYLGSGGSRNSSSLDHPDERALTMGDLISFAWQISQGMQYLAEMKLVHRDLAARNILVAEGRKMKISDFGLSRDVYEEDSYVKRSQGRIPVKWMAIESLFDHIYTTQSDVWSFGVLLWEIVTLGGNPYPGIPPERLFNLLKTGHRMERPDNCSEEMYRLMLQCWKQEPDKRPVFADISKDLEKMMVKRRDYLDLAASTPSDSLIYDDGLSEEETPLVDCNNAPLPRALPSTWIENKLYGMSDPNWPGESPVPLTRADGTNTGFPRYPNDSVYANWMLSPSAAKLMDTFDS

As a reminder, the inhibition is the relative decrease from the control value, in per cent. On to `CN1CCCCCOc2cc3c(ncnc3cc2OCCCN2CCS(=O)(=O)CC2)Nc2cc(Cl)c(F)cc2C1` [Compound 19], for which the inhibition at 1 µM at EGFR (h) is over 80%; on Fgr human, 60 to 80%; on Ret human, over 80%; on Yes (h) it was over 80%; at Flt1 human, over 80%; at Blk (m), over 80%. Also, the inhibition at 1 µM on ErbB4 (h) fell in the range of 60 to 80%.
For `CC(=O)NCCNCCCOc1cc2ncnc3c2cc1OCCCCCN(C)Cc1ccc(Br)cc1N3` [Compound 13], the inhibition at 1 µM on EGFR (h), on Fgr human, at Ret human, on Yes (h), at Flt1 human and on Blk (m) was over 80% throughout. For the same compound, the inhibition at 1 µM on ErbB4 (h) was over 80%.
Take `CN1CCCCCOc2cc3c(ncnc3cc2OC[C@@H](O)CN2CCS(=O)(=O)CC2)Nc2cc(Br)ccc2C1` [Compound 12]: the inhibition at 1 µM on EGFR (h) was over 80%; at Fgr human, 60 to 80%; at Ret human, over 80%; at Yes (h) it was over 80%; at Flt1 human, 60 to 80%; at Blk (m), over 80%. Also, the inhibition at 1 µM on ErbB4 (h) was 60 to 80%.
In the case of `CN1CCCCCOc2cc3c(ncnc3cc2OCCCNCCS(C)(=O)=O)Nc2cc(Br)ccc2C1` [Compound 14], the inhibition at 1 µM at EGFR (h) is over 80%; on Fgr human, 60 to 80%; at Ret human it was over 80%; on Yes (h), over 80%; on Flt1 human, over 80%; at Blk (m) it was over 80%. On ErbB4 (h), the inhibition at 1 µM was over 80%.
Regarding `COCCOCCOc1cc2ncnc3c2cc1OCCCCCN(C)Cc1ccc(Br)cc1N3` [Int. 43], the inhibition at 1 µM on EGFR (h) was over 80%; on Fgr human, 30 to 60%; on Ret human it was over 80%; at Yes (h), over 80%; at Flt1 human, 60 to 80%; at Blk (m), 60 to 80%. Also, the inhibition at 1 µM on ErbB4 (h) lay in the range of 10 to 30%.

(Values after patent US9688691B2, “Macrocyclic quinazole derivatives and their use as MTKI” (Janssen Pharmaceutica NV, priority 2004, dated 2017).)
